Where two headings read alike, the source gives them in different places.
How the values were obtained:
Ebola virus/Zaire [1] = assay: microbe, parasite or virus in culture; assay type: cell-based; settings: Zaire ebolavirus
in vitro = settings: African green monkey
Ebola virus/Zaire [2] = assay type: cell-based

Row | Compound | EC50 (Ebola virus/Zaire [1]) [µM] | CC50 (in vitro) [µM] | CC50 (CellTiter96 (MTS) cells) [µg/mL] | EC50 (Ebola virus/Zaire [2]) [µg/mL] | EC90 (Ebola virus/Zaire [2]) [µg/mL]
1 | NC(=O)c1nc(F)c[nH]c1=O [Favipiravir] | 96 | > 1000 |  |  | 
2 | Allophycocyanin |  |  | >400 | 1.77 | >400

Source: patent publication US11246898B2 (priority 2017, dated 2022)
